From patent US20210301349A1, “COMPOSITIONS AND METHODS FOR TREATING A TUMOR SUPPRESSOR DEFICIENT CANCER” (BETH ISRAEL DEACONESS MEDICAL CENTER, INC., priority 2016, published 2021)
Several values for one entry are separate records, joined by “and”; a condition that tells them apart may be missing. Equal values may be shown once. Entries after “also recorded” stand apart in the source; their conditions may differ.

What was measured:
Format in all cases: in vivo, mouse
[1] = tested on: Pten^pc−/−; Trp53^pc−/− prostate tumors; assay: Flow cytometry of immune infiltrate in treated Pten^pc−/−; Trp53^pc−/− prostate tumors; conditions: Trp53^pc−/− prostate tumors after treatment
Procedure: (§1) Mice were allocated at random to experimental groups and studies were performed in an unblended manner. For treatment with the CXCR2 antagonist, SB225002 (Cayman Chemical #13336) was dissolved in DMSO (10 mg/ml) and diluted in vehicle (0.9% NaCl, 0.3% Tween 80) for in vivo administration. Mice (4 months of age) were treated daily for 10 days by intraperitoneal injection (5 mg/kg) and prostate tumor tissue (anterior lobes) was subjected to Flow Cytometry and histological analysis. For MRI analysis, mice (4 months of age) were treated daily for 21 days (Pten^pc−/−; Zbtb7a^pc−/−), for 14 days (Pten^pc−/−; Trp53^pc−/−) or for 14 days (Pten^pc−/−; Pml^pc−/−) by intraperitoneal injection (5 mg/kg). For depletion of Gr-1+/CD11b+ cells, Ly6G-depletion antibody (1A8, BioXcell) and control Rat IgG2a antibody (BioXcell) were diluted in phosphate-buffered saline (PBS) for in vivo administration. Mice (4 months of age) were treated every other day for 10 days by intraperitoneal injection (200-300 μg/mouse). […] Tumor volume quantification was performed by using VivoQuant and Image J software. […]
(§2) For Flow Cytometry, spleen and lymph node single cell suspensions were prepared by mashing the tissue in 2% FBS/PBS. […] All staining mixtures were analyzed on a BD LSR II flow cytometer (Becton Dickinson). Resulting profiles were further processed and analyzed using the FlowJo 8.7 software.

[2] = tested on: Pten^pc−/−; Zbtb7a^pc−/− prostate tumors; assay: Flow cytometry of immune infiltrate in treated Pten^pc−/−; Zbtb7a^pc−/− prostate tumors; conditions: Zbtb7a^pc−/− prostate tumors after treatment
Procedure: as §1, §2

[3] = tested on: Pten^pc−/−; Pml^pc−/− prostate tumors; assay: Tumor growth by MRI in Pten^pc−/−; Pml^pc−/− mice under CXCR2 antagonist treatment; conditions: for tumor volume: Pten-Pml, individual mice; for tumor growth: Pten^pc−/−, Pml^pc−/− mice, versus vehicle
Procedure: Mice were allocated at random to experimental groups and studies were performed in an unblended manner. For treatment with the CXCR2 antagonist, SB225002 (Cayman Chemical #13336) was dissolved in DMSO (10 mg/ml) and diluted in vehicle (0.9% NaCl, 0.3% Tween 80) for in vivo administration. Mice (4 months of age) were treated daily for 10 days by intraperitoneal injection (5 mg/kg) and prostate tumor tissue (anterior lobes) was subjected to Flow Cytometry and histological analysis. For MRI analysis, mice (4 months of age) were treated daily for 21 days (Pten^pc−/−; Zbtb7a^pc−/−), for 14 days (Pten^pc−/−; Trp53^pc−/−) or for 14 days (Pten^pc−/−; Pml^pc−/−) by intraperitoneal injection (5 mg/kg). For depletion of Gr-1+/CD11b+ cells, Ly6G-depletion antibody (1A8, BioXcell) and control Rat IgG2a antibody (BioXcell) were diluted in phosphate-buffered saline (PBS) for in vivo administration. Mice (4 months of age) were treated every other day for 10 days by intraperitoneal injection (200-300 μg/mouse). InVivoMAb anti-mouse Ly6G/Ly6C (Gr-1) antibody, clone RB6-8C5 (BE0075, BioXcell), and control Rat IgG2b antibody (BE0090, BioXcell) were diluted in PBS and Pten^pc−/−; Trp53^pc−/− mice were treated every other day for 14 days by intraperitoneal injection (200 μg/mouse). For neutralization of CXCL5, anti-Mouse CXCL5 antibody (Leinco Technologies) and control Rat IgG2a antibody (BioXcell) were diluted in PBS and injected every other day for 21 days by intraperitoneal injection (20 μg/mouse). Tumor volume quantification was performed by using VivoQuant and Image J software. All mouse prostate MRI imaging analysis was performed at Small Animal Imaging Core at BIDMC and acquired on an ASPECT Model M2 1T tabletop scanner.

[4] = tested on: Pten^pc−/−; Pml^pc−/− prostate tumors; assay: Flow cytometry of immune infiltrate in treated Pten^pc−/−; Pml^pc−/− prostate tumors; conditions: Pml^pc−/− prostate tumors after treatment
Procedure: as §1, §2

O=C(Nc1ccc([N+](=O)[O-])cc1O)Nc1ccccc1Br [SB225002]
Treg cells (Foxp3+) [1]: less Foxp3+ cells; also recorded: less Treg cells | intra-tumoral Gr-1+/CD11b+ cells [1]: decrease of Gr-1+/CD11b+ cells | intra-tumoral Gr-1+/CD11b+ cells [2]: decrease of Gr-1+/CD11b+ cells | tumor volume ([3]; CXCR2i (SB225002 5 mg/kg i.p. daily), row 0 = day 0 baseline, MRI): 45.996 mm3 and 37.426 mm3 | tumor volume ([3]; CXCR2i, row 1 (weekly MRI)): 53.662 mm3 and 43.164 mm3 | tumor volume ([3]; CXCR2i, row 2 (weekly MRI, 2 weeks on treatment)): 56.567 mm3 and 45.972 mm3 | tumor growth [3]: did not show any significant response | tumor growth ([3]; listed as CXCR2i): did not respond | intra-tumoral Gr-1+/CD11b+ cells [4]: decrease of Gr-1+/CD11b+ cells
